Test results as given in PubChem BioAssay (NCI).
Where “and” joins values, the source holds several entries; their conditions need not be identical. Identical values can stand only once.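 Step 1: Grow cells in 96-well plates. Step 2: Expose to compound for 48 hours at 5 concentrations. Step 3: Interpolate endpoints linearly; if unreached, use highest concentration. At the GI50, growth is halved. The concentration for full growth arrest is given as TGI.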

Key:
Assay in all cases: DTP human tumour cell line panel, 48 h
M19-MEL melanoma = tested on: M19-MEL melanoma
DMS 114 small cell lung = tested on: DMS 114 small cell lung
SNB-78 CNS = tested on: SNB-78 CNS
DLD-1 colon = tested on: DLD-1 colon
HOP-18 NSCLC = tested on: HOP-18 NSCLC
DU-145 prostate = tested on: DU-145 prostate
MCF7 breast = tested on: MCF7 breast
HS 578T breast = tested on: HS 578T breast
BT-549 breast = tested on: BT-549 breast
NCI/ADR-RES ovarian = tested on: NCI/ADR-RES ovarian

Structure (SMILES) | TGI (M19-MEL melanoma) | TGI (DMS 114 small cell lung) | TGI (SNB-78 CNS) [µM] | TGI (DLD-1 colon) | TGI (HOP-18 NSCLC) | also measured
CC(C)N(C(=O)C12C3C4C1C1C2C3C41C(=O)C(C)(C)C)C(C)C (stereo not drawn) | > 100 µM | > 100 µM | > 100 | > 100 µM | – | –
N#CCCN(CCC#N)c1ccc(/C=C(/NC(=O)c2cc([N+](=O)[O-])ccc2Cl)C(=O)N=[N+]=[N-])cc1 | > 100 µM | > 100 µM | > 100 | > 100 µM | > 100 µM | –
C/C(NNC(=O)c1ccccc1O)=C1\C=Nc2ccccc2S1 | > 100 µM | – | > 100 | > 100 µM | 49.6 µM | –
Cc1ccc2nc(NC(=O)C(=O)C(C(=O)c3ccc4ccccc4c3)C3OC(=O)c4ccccc43)sc2c1 (stereo not drawn) | 32.6 µM | 29.3 µM | 27.7 | 32.7 µM | – | –
CC1CC(C[N+](=O)[O-])CC2(C1)OCCO2 (stereo not drawn) | > 100 µM | > 100 µM | > 100 | > 100 µM | > 100 µM | –
CC(=O)NNc1nc(C)c(C(=O)NNC(=O)C(=O)Nc2ccc(Cl)c([N+](=O)[O-])c2)s1 | > 100 µM | > 100 µM | > 100 | – | – | –
CCOC(=O)c1oc2c(OC)ccc3c2c1CCC3 | > 100 µM | > 100 µM | > 100 | > 100 µM | – | –
NC1=NN(c2ccccc2)C(=O)C1C(=O)C(=O)Nc1ccc(Cl)cc1 (stereo not drawn) | > 100 µM | > 100 µM | > 100 | > 100 µM | > 100 µM | –
CCCCCCCCSC(=O)NCCCC | > 100 µM | – | – | > 100 µM | > 100 µM | –
CC12Nc3ccccc3C1=C(c1ccccc1)CC1C(=O)OC(=O)C12 (stereo not drawn) | > 100 µM | > 100 µM | > 100 | > 100 µM | – | –
C[C@H]1CCC/C=C/C2CC(OC(=O)CN(C)C)CC2C(OC(=O)CN(C)C)/C=C/C(=O)O1 (stereo partly drawn) | 0.211 µM | > 30.2 µM | > 100 | > 37.1 µM | – | GI50 (M19-MEL melanoma): 0.0406 µM; GI50 (DMS 114 small cell lung): 0.479 µM; GI50 (DU-145 prostate): 0.615 µM; TGI (DU-145 prostate): > 100 µM; GI50 (SNB-78 CNS): 0.227 µM; GI50 (MCF7 breast): 0.31 µM; TGI (MCF7 breast): 1.53 µM; GI50 (DLD-1 colon): 0.443 µM; GI50 (HS 578T breast): 30.1 µM; TGI (HS 578T breast): > 100 µM; GI50 (BT-549 breast): 0.459 µM; TGI (BT-549 breast): 74.9 µM
O=C(NCCCCCCCCCCCCNC(=O)c1cnc2ccccc2n1)c1cnc2ccccc2n1 | > 100 µM | > 100 µM | > 100 | > 100 µM | 79.4 µM | –
C/C(=N\Nc1ccccc1)c1sc(-c2nc(C)c(/C(C)=N/Nc3ccccc3)s2)nc1C | > 85.2 µM | > 30.8 µM | > 100 | > 100 µM | > 96.6 µM | –
O=C1C=CC2(CCCCCCC2=O)CC1 (stereo not drawn) | > 100 µM | – | > 100 | > 100 µM | > 100 µM | –
CC(=O)OC1C[C@H]2C(OC(=O)c3ccccc3)C3C4(OC(C)=O)COC4C[C@H](OC(C)=O)[C@@]3(C)C(OC(C)=O)[C@H](OC(C)=O)C(=C1C)C2(C)C (stereo partly drawn) | > 100 µM | > 100 µM | > 100 | > 100 µM | > 100 µM | –
CCCCCCCCCCC(=O)CCCCCCC(=O)O | 74.7 µM | 50.3 µM | > 100 | 47.2 µM | 39 µM | –
Cc1ccccc1/C=C/c1csnn1 | > 100 µM | > 56 µM | > 100 | > 74.3 µM | > 100 µM | –
O/N=C1/CCCC/C1=C/C=C/c1ccccc1 | 43.8 µM | – | 77.7 | > 100 µM | 78.1 µM | TGI (DU-145 prostate): 62.9 µM
O=S(=O)(C1=CC(S(=O)(=O)c2ccccc2)COC1)c1ccccc1 (stereo not drawn) | > 100 µM | > 100 µM | – | > 100 µM | – | –
O=C(CCC(=O)Nc1ccccc1C(F)(F)F)N/N=C1\C(=N\NC(=O)CCC(=O)Nc2ccccc2C(F)(F)F)C(c2ccc3c(c2)OCO3)Oc2ccccc21 (stereo not drawn) | > 100 µM | > 22.3 µM | > 100 | > 100 µM | > 100 µM | –
Cc1ccccc1NC(=O)CC1C(=O)Nc2ccccc2S1=O (stereo not drawn) | > 100 µM | > 100 µM | > 100 | > 100 µM | – | –
O=C1c2c(O)cccc2C(C(=O)CCCCCC(=O)C2c3cccc(O)c3C(=O)c3c(O)cccc32)c2cccc(O)c21 | 2.5 µM and 9.2 µM | 1.29 µM and 9.22 µM | – | 8.88 µM and 16.7 µM | 4.28 µM and 14.9 µM | GI50 (M19-MEL melanoma): 2.4 µM; GI50 (DMS 114 small cell lung): 3.16 µM; GI50 (HOP-18 NSCLC): 7.95 µM; GI50 (SNB-78 CNS): 7.55 µM; GI50 (DLD-1 colon): 7.67 µM
Cc1cc(=O)oc2c(C3=NN(C=O)C(c4ccccc4)C3)c(O)ccc12 (stereo not drawn) | > 100 µM | > 100 µM | > 96 | > 100 µM | > 100 µM | TGI (DU-145 prostate): > 100 µM; TGI (NCI/ADR-RES ovarian): > 100 µM; TGI (MCF7 breast): > 95.5 µM; TGI (HS 578T breast): > 93.2 µM; TGI (BT-549 breast): > 100 µM
CCc1cccc(C(C)C)c1NC(=O)CC1Sc2ccccc2NC1=O (stereo not drawn) | > 100 µM | > 100 µM | > 100 | > 100 µM | > 100 µM | –
NC(Cc1ccccc1)C(=O)OCN1C(=O)C2C3C=CC(C2C1=O)C1C2C(=O)N(COC(=O)C(N)Cc4ccccc4)C(=O)C2C31 (stereo not drawn) | 38.4 µM | 40.4 µM and 33.8 µM | – | 51.4 µM and 60.6 µM | > 100 µM and 52.1 µM | GI50 (M19-MEL melanoma): 21.6 µM; GI50 (HOP-18 NSCLC): 45.3 µM and 20 µM
